Patent US12540117B2, “Aniline compound used as RORγ regulator” (SHANGHAI LITEDD CO., LTD., priority 2020, dated 2026)

What was measured:
[1] = system: Th17 cells differentiation and secretion of IL-17; test: Inhibition of Th17 differentiation in human PBMC (IL-17 ELISA); format: cell-based; details: for Emax: Homo sapiens, PBMC, maximum inhibition rate, maximum concentration 3 μM; for IC50: IL-17 secretion, human PBMC, 48 hours
Experimental: Test procedure: the PBMC cells were first thawed and plated, and then stimulated with the stimulating factors (anti-hCD28: 5 μg/mL; rhTGF-β1: 5 ng/mL; rhIL-6: 20 ng/mL; rhIL-23: 10 ng/mL) to differentiate to Th17, while different concentrations of compounds were added, with the maximum concentration starting from 3 μM. After 48 hours, the supernatant was collected for IL-17 ELISA detection. The inhibition rates of the compounds to inhibit the secretion of IL-17 by Th17 cells were determined, as compared with the vehicle group, and the IC50 values were fitted with Graphad8.0.

[2] = Metabolic stability in human liver microsomes; format: in vitro ADME; details: for half-life: 0.5 mg protein/mL; for microsomal CLint: read-out: CLint(mic)
From the text: (§1) According to standard methods for investigating in vitro metabolic stability in the art, e.g., the methods described in Kerns, Edward H. and Di Li (2008). Drug-like Properties: Concepts, Structure Design and Methods: from ADME to Toxicity Optimisation. San Diego: Academic Press; Di, Li et al., Optimisation of a Higher Throughput Microsomal Stability Screening Assay for Profiling Drug Discovery Candidates, J. Biomol. Screen. 2003, 8(4), 453, the liver microsomal metabolic stability test of the compounds of the present disclosure was carried out analogously as follows. The incubation system comprising 0.5 mg protein/mL microsomes, cofactors, and PBS, was pre-incubated at 37° C. for 3 min, and then added the substrate (i.e., the test compounds) to initiate the reaction. Samples were taken at 0, 1, 5, 10, 15, 20, 30 and 60 min from the start of the reaction, and an appropriate terminator was added to terminate the reaction. Sample treatment (n=3): appropriate samples were added respectively, vortexed and centrifuged at high speed. The supernatants were collected and detected for the substrate by HPLC-MS/MS. The peak area at the 0 mm was taken as 100%. The peak areas at other time points were converted to percentages of remaining. The natural logarithms of the percentages of remaining at each time point was plotted against the incubation time, and the slope (−k) was calculated by linear regression. Then, Clint (μL/min/mg) and half-life (T½, min.) of the compounds were calculated following the equation: Inherent clearance rate (Clint)=(k*Volume of incubation solution)/Mass of liver microsomes.

[3] = Pharmacokinetic (PK) assay in mice; format: in vivo, C57BL/6 mice; details: for AUC(0-t) / Cmax / half-life / Vd / bioavailability: C57BL/6, mouse, plasma; for Vd: read-out: Vss; for bioavailability: Po 5 mg/kg vs IV 1 mg/kg
Experimental: The PK of each compound was determined as follows: 6 C57BL/6 mice (obtained from Shanghai Lingchang Biotechnology Co., Ltd.) were divided into two groups with 3 in each group. One group was administered intravenously at a dose of 1 mg/kg in the vehicle of 5% DMSO/95% (20% Captisol); the other group was administered by oral gavage at a dose of 5 mg/kg in the vehicle of 0.5% CMC-Na/0.5% Tween 80. Blood samples were collected from saphenous vein of lower leg in each group at 0, 0.083, 0.25, 0.5, 1, 2, 4, 6, 8 and 24 h after administration. Approximately 40 μL of the blood samples were collected into anticoagulant tubes containing EDTA-K2 Immediately after collection, the tubes were inverted at least 5 times to ensure uniform mixing, and then placed on ice. The blood samples collected at each time point were centrifuged at 4° C., 8000 rpm for 5 minutes to obtain plasma. Another 1.5 mL centrifuge tube was marked with the compound name, animal number, and time point, and the plasma was transferred to this tube. The plasma was stored at −80° C. until analysis.
Compound concentrations in the plasma were determined by UPLC-MS/MS method, and the pharmacokinetic parameters were calculated from the obtained data by Phoenix WinNolin 6.4 pharmacokinetic software.

RORγt = target: T1, RORγt (Homo sapiens, UniProt P51449); test: In vitro luciferase reporter assay of RORγt inhibition (GAL4-RORγ-LBD in HEK293T); details: for Emax: HEK-293T, relative maximum inhibition rate relative to AZD-0284 at 10 μM; for IC50: IC50, RORγt luciferase reporter gene, HEK293T
T1 sequence (P51449 269-508 limits assumed): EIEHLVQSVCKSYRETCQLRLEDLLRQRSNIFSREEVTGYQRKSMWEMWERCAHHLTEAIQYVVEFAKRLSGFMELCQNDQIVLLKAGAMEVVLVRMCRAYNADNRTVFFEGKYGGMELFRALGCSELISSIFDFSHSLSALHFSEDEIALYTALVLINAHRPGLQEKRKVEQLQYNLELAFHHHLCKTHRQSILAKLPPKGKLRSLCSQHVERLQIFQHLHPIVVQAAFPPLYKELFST
From the text: The RORγ-LBD coding sequence was inserted into pBIND plasmid (Promega, E1581). The expression vector and a reporter vector (pGL4.35 carrying a stably integrated luciferase reporter gene driven by GAL4 promoter) were co-expressed in HEK293T host cells. When the inhibitor binds to the corresponding chimeric receptor, the chimeric receptor binds to the GAL4 binding site on the reporter gene carrier and inhibits reporter gene expression. The inhibition activity of the compounds on RORγ was determined according to the intensity of the chemiluminescence signal.
2.2 Cell Transfection • a) Balancing the Trans-IT transfection reagent at room temperature; • b) Adding 20 μl of the transfection reagent and 600 μl of Opti-MEM™ medium without contacting the tube wall, mixing uniformly through blowing and pipetting by a pipette gun, and allowing to stand at room temperature for 5 minutes; • c) Adding 10 μg of the plasmid to the transfection reagent (see Step 2.2.b), and allowing to stand at room temperature for 20 minutes; • Plasmids: 5 μg of pBIND-RORγ and 5 μg of pGL4.35 plasmids were respectively added therein; • d) Adding the mixed DNA transfection reagent to a 100 mm cell culture dish (see Step 2.1); • e) Placing the dish in an incubator at 37° C. and 5% CO2 for 5 h. […] Calculation of % Inhibition
[formula] • RLUcmpd: fluorescence value of test compounds • RLUpositive: average value of positive control • RLUvehicle: average value of negative control
IC50s of the compounds were calculated by fitting the % Inhibition and the logarithm values of the compound concentration using Graphad 8.0.

[4] = Metabolic stability in mouse liver microsomes; format: in vitro ADME, CD-1 mice; details: for half-life: CD-1, 0.5 mg protein/mL; for microsomal CLint: CD-1, read-out: CLint(mic)
From the text: as §1

Structure (SMILES): CCS(=O)(=O)c1ccc2c(c1)CCN(C(C)=O)C2C(=O)Nc1ccc(C(O)(C(F)(F)F)C(F)(F)F)cc1 (racemic) [Example 1, 2-Acetyl-6-(ethylsulfonyl)-N-(4-(1,1,1,3,3,3-hexafluoro-2-hydroxypropan-2-yl)phenyl)-1,2,3,4-tetrahydroisoquinoline-1-carboxamide]
- Emax [1]: 79%
- IC50 [1]: 51.4 nM
- half-life [2]: > 2.42 h
- Remaining % (T = 60 min) [2]: 94.2%
- microsomal CLint [2]: < 9.6 µL/min/mg
- AUC(0-t) ([3]; IV, 1 mg/kg): 1850 ng·h/mL
- Cmax ([3]; IV, 1 mg/kg): 1390 ng/mL
- half-life ([3]; IV, 1 mg/kg): 5.09 h
- Vd ([3]; IV, 1 mg/kg): 2.71 L/kg
- bioavailability [3]: 84%
- AUC(0-t) ([3]; Po, 5 mg/kg): 9640 ng·h/mL
- Cmax ([3]; Po, 5 mg/kg): 816 ng/mL
- half-life ([3]; Po, 5 mg/kg): 3.91 h
- CL_obs ([3]; IV, 1 mg/kg): 7.12 mL/min/kg
- Emax (RORγt): 102%
- IC50 (RORγt): 19.1 nM
- half-life [4]: > 2.42 h
- microsomal CLint [4]: < 9.6 µL/min/mg
- Remaining % (T = 60 min) [4]: 94.5%

Structure (SMILES): CC(=O)N1CCc2cc(S(C)(=O)=O)ccc2C1C(=O)Nc1ccc(C(O)(C(F)(F)F)C(F)(F)F)cc1 (centres unmarked) [Example 5, 2-Acetyl-N-(4-(1,1,1,3,3,3-hexafluoro-2-hydroxypropan-2-yl)phenyl)-6-(methylsulfonyl)-1,2,3,4-tetrahydroisoquinoline-1-carboxamide]
- half-life [2]: > 2.42 h
- Remaining % (T = 60 min) [2]: 85.0%
- microsomal CLint [2]: < 9.6 µL/min/mg
- AUC(0-t) ([3]; IV, 1 mg/kg): 1190 ng·h/mL
- Cmax ([3]; IV, 1 mg/kg): 1890 ng/mL
- half-life ([3]; IV, 1 mg/kg): 4.89 h
- Vd ([3]; IV, 1 mg/kg): 3.34 L/kg
- bioavailability [3]: 213%
- AUC(0-t) ([3]; Po, 5 mg/kg): 12600 ng·h/mL
- Cmax ([3]; Po, 5 mg/kg): 1370 ng/mL
- half-life ([3]; Po, 5 mg/kg): 4.33 h
- CL_obs ([3]; IV, 1 mg/kg): 13.8 mL/min/kg
- half-life [4]: > 2.42 h
- microsomal CLint [4]: < 9.6 µL/min/mg
- Remaining % (T = 60 min) [4]: 86.6%

Structure (SMILES): CCS(=O)(=O)c1ccc2c(c1)CCN(C(C)=O)C2C(=O)Nc1ccc(C(O)(C(F)(F)F)C(F)(F)F)cc1 (single isomer, unassigned) [Example 2, (R)-2-acetyl-6-(ethylsulfonyl)-N-(4-(1,1,1,3,3,3-hexafluoro-2-hydroxypropan-2-yl)phenyl)-1,2,3,4-tetrahydroisoquinoline-1-carboxamide or (S)-2-acetyl-6-(ethylsulfonyl)-N-(4-(1,1,1,3,3,3-hexafluoro-2-hydroxypropan-2-yl)phenyl)-1,2,3,4-tetrahydroisoquinoline-1-carboxamide]
- Emax [1]: 78.3%
- IC50 [1]: 22.7 nM
- half-life [2]: > 2.42 h
- Remaining % (T = 60 min) [2]: 82.2%
- microsomal CLint [2]: < 9.6 µL/min/mg
- AUC(0-t) ([3]; IV, 1 mg/kg): 1300 ng·h/mL
- Cmax ([3]; IV, 1 mg/kg): 2310 ng/mL
- half-life ([3]; IV, 1 mg/kg): 1.78 h
- Vd ([3]; IV, 1 mg/kg): 1.06 L/kg
- bioavailability [3]: 82.1%
- AUC(0-t) ([3]; Po, 5 mg/kg): 5330 ng·h/mL
- Cmax ([3]; Po, 5 mg/kg): 553 ng/mL
- half-life ([3]; Po, 5 mg/kg): 3.31 h
- CL_obs ([3]; IV, 1 mg/kg): 12.8 mL/min/kg
- Emax (RORγt): 100%
- IC50 (RORγt): 8 nM
- half-life [4]: > 2.42 h
- microsomal CLint [4]: < 9.6 µL/min/mg
- Remaining % (T = 60 min) [4]: 102.3%

Structure (SMILES): CCS(=O)(=O)c1cc2c(s1)C(C(=O)Nc1ccc(C(O)(C(F)(F)F)C(F)(F)F)cc1)N(C(C)=O)CC2 (centres unmarked) [Example 6, 6-Acetyl-2-(ethylsulfonyl)-N-(4-(1,1,1,3,3,3-hexafluoro-2-hydroxypropan-2-yl)phenyl)-4,5,6,7-tetrahydrothieno[2,3-c]pyridine-7-carboxamide]
- half-life [2]: > 2.42 h
- Remaining % (T = 60 min) [2]: 70.2%
- microsomal CLint [2]: < 9.6 µL/min/mg
- Emax (RORγt): 99.9%
- IC50 (RORγt): 113 nM
- half-life [4]: 1.54 h
- microsomal CLint [4]: 14.9 µL/min/mg
- Remaining % (T = 60 min) [4]: 59.4%

Structure (SMILES): CCS(=O)(=O)c1ccc2c(c1)CCN(C(C)=O)C2C(=O)Nc1ccc(C(F)(C(F)(F)F)C(F)(F)F)cc1 (racemic) [Example 7, 2-Acetyl-6-(ethylsulfonyl)-N-(4-(perfluoropropan-2-yl)phenyl)-1,2,3,4-tetrahydroisoquinoline-1-carboxamide]
- Emax [1]: 72%
- IC50 [1]: 21.1 nM
- half-life [2]: 1.26 h
- Remaining % (T = 60 min) [2]: 61.0%
- microsomal CLint [2]: 18.4 µL/min/mg
- AUC(0-t) ([3]; IV, 1 mg/kg): 4870 ng·h/mL
- Cmax ([3]; IV, 1 mg/kg): 703 ng/mL
- half-life ([3]; IV, 1 mg/kg): 39.9 h
- Vd ([3]; IV, 1 mg/kg): 4.02 L/kg
- bioavailability [3]: 83.5%
- AUC(0-t) ([3]; Po, 5 mg/kg): 20300 ng·h/mL
- Cmax ([3]; Po, 5 mg/kg): 1080 ng/mL
- half-life ([3]; Po, 5 mg/kg): 37.6 h
- CL_obs ([3]; IV, 1 mg/kg): 1.23 mL/min/kg
- Emax (RORγt): 99.6%
- IC50 (RORγt): 12.4 nM
- half-life [4]: > 2.42 h
- microsomal CLint [4]: < 9.6 µL/min/mg
- Remaining % (T = 60 min) [4]: 79.7%
